Among the data in patent publication US20210070748A1, “INHIBITORS OF BRUTONS TYROSINE KINASE” (Pharmacyclics LLC, priority 2015, published 2021) are IC50 values, retold here.

pIC50: −log10 of the molar value.

Holding throughout (assay type): biochemical
The target of assay [1] is T1, ITK (Homo sapiens, UniProt Q08881).
T1 sequence (Q08881 1-620): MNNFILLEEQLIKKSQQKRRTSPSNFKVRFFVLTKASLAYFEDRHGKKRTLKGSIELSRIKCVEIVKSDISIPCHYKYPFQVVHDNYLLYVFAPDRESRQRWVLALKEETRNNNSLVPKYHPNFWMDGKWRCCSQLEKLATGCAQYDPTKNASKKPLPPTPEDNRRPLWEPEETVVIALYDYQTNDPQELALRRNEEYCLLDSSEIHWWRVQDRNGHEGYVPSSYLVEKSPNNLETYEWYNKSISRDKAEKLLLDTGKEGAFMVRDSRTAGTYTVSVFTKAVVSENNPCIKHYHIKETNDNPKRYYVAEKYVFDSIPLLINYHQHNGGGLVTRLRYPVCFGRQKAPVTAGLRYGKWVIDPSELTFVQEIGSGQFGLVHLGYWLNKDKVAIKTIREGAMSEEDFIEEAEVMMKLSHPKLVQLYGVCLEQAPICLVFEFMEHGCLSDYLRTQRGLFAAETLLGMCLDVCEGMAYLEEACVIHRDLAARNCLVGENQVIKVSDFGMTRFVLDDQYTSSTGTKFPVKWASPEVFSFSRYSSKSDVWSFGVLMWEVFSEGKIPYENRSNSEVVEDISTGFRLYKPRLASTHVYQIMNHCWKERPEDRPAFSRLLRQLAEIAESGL
Kind of assay: Inhibition of a panel of kinases, in vitro HotSpot kinase assay: ITK. As to conditions: Table 15, C compounds; 1 μM ATP. The procedure: (§1) The degree of inhibition of a panel of kinases is determined using the in vitro HotSpot kinase assay (purified enzymes, ^33P-ATP, an appropriate substrate and 1 μM ATP).

The target of assay [2] is T2, TEC (Homo sapiens, UniProt P42680).
T2 sequence (P42680 1-631): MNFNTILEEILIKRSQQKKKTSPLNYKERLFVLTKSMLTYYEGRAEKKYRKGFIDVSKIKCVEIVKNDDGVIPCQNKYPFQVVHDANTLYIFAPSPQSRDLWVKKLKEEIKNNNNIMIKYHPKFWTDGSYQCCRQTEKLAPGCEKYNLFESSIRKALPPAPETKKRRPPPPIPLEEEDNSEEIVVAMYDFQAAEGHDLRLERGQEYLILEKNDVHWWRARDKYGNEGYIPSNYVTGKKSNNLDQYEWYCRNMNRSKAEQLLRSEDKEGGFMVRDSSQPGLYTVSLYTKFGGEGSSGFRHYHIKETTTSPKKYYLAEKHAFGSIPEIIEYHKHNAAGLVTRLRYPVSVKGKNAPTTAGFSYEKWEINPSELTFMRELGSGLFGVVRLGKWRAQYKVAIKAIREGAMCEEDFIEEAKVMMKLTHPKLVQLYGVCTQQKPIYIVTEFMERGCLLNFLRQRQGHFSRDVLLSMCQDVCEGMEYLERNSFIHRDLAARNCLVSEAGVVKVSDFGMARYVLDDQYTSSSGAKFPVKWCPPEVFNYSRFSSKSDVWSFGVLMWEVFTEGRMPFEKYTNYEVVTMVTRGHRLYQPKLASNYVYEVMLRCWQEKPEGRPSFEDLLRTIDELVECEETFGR
The assay is described as follows: Inhibition of a panel of kinases, in vitro HotSpot kinase assay: TEC. As to conditions: Table 15, C compounds; 1 μM ATP. The method, then: as §1

The target of assay [3] is T3, TXK (Homo sapiens, UniProt P42681).
T3 sequence (P42681 1-527): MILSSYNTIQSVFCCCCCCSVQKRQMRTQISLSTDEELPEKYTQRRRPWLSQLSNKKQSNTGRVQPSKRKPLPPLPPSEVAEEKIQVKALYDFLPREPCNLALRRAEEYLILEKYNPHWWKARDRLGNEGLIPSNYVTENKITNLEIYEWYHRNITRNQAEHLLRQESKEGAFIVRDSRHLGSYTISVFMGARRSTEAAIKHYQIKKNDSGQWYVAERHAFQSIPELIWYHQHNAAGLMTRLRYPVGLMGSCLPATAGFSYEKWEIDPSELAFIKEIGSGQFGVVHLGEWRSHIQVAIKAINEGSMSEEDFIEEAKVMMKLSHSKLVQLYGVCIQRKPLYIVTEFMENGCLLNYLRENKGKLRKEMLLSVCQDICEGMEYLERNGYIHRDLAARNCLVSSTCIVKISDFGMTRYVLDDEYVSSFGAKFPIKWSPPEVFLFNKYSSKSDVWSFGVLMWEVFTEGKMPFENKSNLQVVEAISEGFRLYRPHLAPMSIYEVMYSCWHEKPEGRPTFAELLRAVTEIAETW
The assay is described as follows: Inhibition of a panel of kinases, in vitro HotSpot kinase assay: TXK. As to conditions: Table 15, C compounds; 1 μM ATP. The method, then: as §1

The target of assay [4] is EGFR (Homo sapiens, UniProt P00533). The assay is described as follows: Inhibition of a panel of kinases, in vitro HotSpot kinase assay: EGFR. The note with it: Table 15, C compounds; 1 μM ATP. The method, then:
as §1

In assay [5] the target is T4, BTK-WT (Homo sapiens, UniProt Q06187).
T4 construct: purified from insect cells as a full-length construct containing an N-terminal 6X-His tag; His6 (N); made in house; host or cells: insect cells (baculovirus Sf21 in Method B)
T4 sequence (Q06187 whole entry): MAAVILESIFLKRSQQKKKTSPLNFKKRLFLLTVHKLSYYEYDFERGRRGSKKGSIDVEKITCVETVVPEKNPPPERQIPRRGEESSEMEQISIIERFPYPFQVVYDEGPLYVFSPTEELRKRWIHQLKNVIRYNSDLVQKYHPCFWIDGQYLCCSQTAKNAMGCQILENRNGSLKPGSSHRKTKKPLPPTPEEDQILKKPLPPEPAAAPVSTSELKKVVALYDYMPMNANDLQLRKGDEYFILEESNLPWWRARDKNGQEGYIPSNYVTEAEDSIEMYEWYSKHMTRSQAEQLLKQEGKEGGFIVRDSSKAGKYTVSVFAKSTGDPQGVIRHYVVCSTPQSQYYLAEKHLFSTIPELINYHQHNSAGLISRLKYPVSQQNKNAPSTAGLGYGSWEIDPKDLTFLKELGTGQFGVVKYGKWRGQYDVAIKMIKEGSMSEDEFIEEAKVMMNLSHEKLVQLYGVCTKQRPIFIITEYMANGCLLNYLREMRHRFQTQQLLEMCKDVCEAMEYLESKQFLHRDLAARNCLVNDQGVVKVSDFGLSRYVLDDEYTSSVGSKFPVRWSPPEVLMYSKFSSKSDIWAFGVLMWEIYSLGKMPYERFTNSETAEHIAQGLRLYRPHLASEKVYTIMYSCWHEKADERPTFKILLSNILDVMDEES
The assay is described as follows: Btk in vitro inhibitory activity (one of Method A TR-FRET, Method B electrophoretic mobility shift, Method C radiometric filter binding). As to conditions: Table 15, C compounds; read-out: IC50 BTK-WT. A general note: In EMSA bound probe runs differently from free probe, usually more slowly.

Chain of EGFR (P00533 25-1210): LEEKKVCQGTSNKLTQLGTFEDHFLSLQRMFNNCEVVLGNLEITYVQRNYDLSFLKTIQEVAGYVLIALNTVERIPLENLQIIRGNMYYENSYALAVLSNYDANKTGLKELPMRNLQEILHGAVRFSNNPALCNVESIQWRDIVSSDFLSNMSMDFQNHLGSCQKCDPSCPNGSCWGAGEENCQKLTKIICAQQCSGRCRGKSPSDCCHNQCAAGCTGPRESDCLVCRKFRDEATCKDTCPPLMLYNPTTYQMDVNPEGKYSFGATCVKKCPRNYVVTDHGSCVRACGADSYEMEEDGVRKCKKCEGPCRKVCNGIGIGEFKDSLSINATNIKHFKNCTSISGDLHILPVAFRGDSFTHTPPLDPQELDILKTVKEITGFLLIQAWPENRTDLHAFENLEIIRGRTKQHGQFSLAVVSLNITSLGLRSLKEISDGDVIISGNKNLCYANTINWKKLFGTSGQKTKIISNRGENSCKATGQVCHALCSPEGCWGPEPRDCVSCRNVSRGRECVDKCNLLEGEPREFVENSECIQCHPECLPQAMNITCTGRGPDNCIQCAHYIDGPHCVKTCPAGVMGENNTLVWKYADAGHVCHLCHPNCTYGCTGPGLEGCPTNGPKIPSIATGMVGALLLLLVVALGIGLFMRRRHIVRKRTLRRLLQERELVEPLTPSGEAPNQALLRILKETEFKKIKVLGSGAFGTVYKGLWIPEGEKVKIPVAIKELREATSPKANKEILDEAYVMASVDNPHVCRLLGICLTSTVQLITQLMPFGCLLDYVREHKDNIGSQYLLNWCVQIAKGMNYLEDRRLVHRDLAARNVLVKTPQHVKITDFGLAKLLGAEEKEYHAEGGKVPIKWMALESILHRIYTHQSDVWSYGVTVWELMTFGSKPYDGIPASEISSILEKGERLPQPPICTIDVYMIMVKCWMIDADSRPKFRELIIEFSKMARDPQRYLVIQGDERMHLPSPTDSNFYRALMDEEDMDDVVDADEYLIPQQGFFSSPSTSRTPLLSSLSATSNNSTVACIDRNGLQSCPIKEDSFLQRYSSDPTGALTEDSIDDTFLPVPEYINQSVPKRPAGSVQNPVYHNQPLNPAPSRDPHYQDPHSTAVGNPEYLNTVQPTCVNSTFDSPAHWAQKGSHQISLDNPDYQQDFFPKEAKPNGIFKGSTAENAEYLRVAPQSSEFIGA

What is called pIC50 is the negative decadic logarithm of the IC50, by convention in mol/L. `C=CC(=O)N1CCC[C@@H](Nc2nnc(C(N)=O)c(Nc3ccc(-c4ncco4)cc3)n2)C1` [Example C-51, (R)-3-(1-acryloylpiperidin-3-ylamino)-5-(4-(oxazol-2-yl)phenylamino)-1,2,4-triazine-6-carboxamide]: the pIC50 in assay [1] was 7.00 to 8.00; in assay [2] it was no less than 8.00; in assay [3] it was no less than 8.00; in assay [4], no less than 8.00; in assay [5] it was no less than 8.00.

For the compound `C=CC(=O)N1CCC[C@@H](Nc2nnc(C(N)=O)c(Nc3cccc(-c4ncccn4)c3)n2)C1` [Example C-71, (R)-3-(1-acryloylpiperidin-3-ylamino)-5-(3-(pyrimidin-2-yl)phenylamino)-1,2,4-triazine-6-carboxamide], the negative-log IC50 (pIC50) was 7.00 to 8.00 in assay [1]; no less than 8.00 in assay [2]; no less than 8.00 in assay [3]; 7.00 to 8.00 in assay [4]; no less than 8.00 in assay [5].

With `C=CC(=O)N1CCC[C@@H](Nc2nnc(C(N)=O)c(Nc3ccc(C4(C#N)CCCC4)cc3)n2)C1` [Example C-58, (R)-3-(1-acryloylpiperidin-3-ylamino)-5-(4-(1-cyanocyclopentyl)phenylamino)-1,2,4-triazine-6-carboxamide], the pIC50 in assay [1], in assay [2], in assay [3], in assay [4] and in assay [5] was no less than 8.00 throughout.

For the compound `C=CC(=O)N1CCC[C@@H](Nc2nnc(C(N)=O)c(Nc3cccc(-n4nccn4)c3)n2)C1` [Example C-75, (R)-5-(3-(2H-1,2,3-triazol-2-yl)phenylamino)-3-(1-acryloylpiperidin-3-ylamino)-1,2,4-triazine-6-carboxamide], the pIC50 in assay [1] is 7.00 to 8.00; in assay [2], no less than 8.00; in assay [3], no less than 8.00; in assay [4], 7.00 to 8.00; in assay [5], no less than 8.00.

Take `C=CC(=O)N1CCC[C@@H](Nc2nnc(C(N)=O)c(Nc3ccc(-c4nn[nH]n4)cc3)n2)C1` [Example C-78, (R)-5-(4-(2H-tetrazol-5-yl)phenylamino)-3-(1-acryloylpiperidin-3-ylamino)-1,2,4-triazine-6-carboxamide]: the pIC50 was 7.00 to 8.00 in assay [1]; no less than 8.00 in assay [2]; no less than 8.00 in assay [3]; no less than 8.00 in assay [4]; no less than 8.00 in assay [5].

Turning to `C=CC(=O)N1CCC[C@@H](Nc2nnc(C(N)=O)c(Nc3ccc(N4CCOCC4=O)cc3)n2)C1` [Example C-76, (R)-3-(1-acryloylpiperidin-3-ylamino)-5-(4-(3-oxomorpholino)phenyl-amino)-1,2,4-triazine-6-carboxamide], the negative-log IC50 (pIC50) in assay [1] was no less than 8.00; in assay [2] it was no less than 8.00; in assay [3], no less than 8.00; in assay [4], 7.00 to 8.00; in assay [5], no less than 8.00.

With `C=CC(=O)N1CCC[C@@H](Nc2nnc(C(N)=O)c(Nc3ccc(-c4nccs4)cc3)n2)C1` [Example C-77, (R)-3-(1-acryloylpiperidin-3-ylamino)-5-(4-(thiazol-2-yl)phenylamino)-1,2,4-triazine-6-carboxamide], the pIC50 is 7.00 to 8.00 in assay [1]; no less than 8.00 in assay [2]; no less than 8.00 in assay [3]; no less than 8.00 in assay [4]; no less than 8.00 in assay [5].

Turning to `C=CC(=O)N1CCC[C@@H](Nc2nnc(C(N)=O)c(Nc3ccc4ncccc4c3)n2)C1` [Example C-82, (R)-3-(1-acryloylpiperidin-3-ylamino)-5-(quinolin-6-ylamino)-1,2,4-triazine-6-carboxamide], the negative logarithm of the IC50 (pIC50) in assay [1], in assay [2], in assay [3] and in assay [5] was no less than 8.00 throughout.

As to `C=CC(=O)N1CCC[C@@H](Nc2nnc(C(N)=O)c(Nc3ccc(Cn4cncn4)cc3)n2)C1` [Example C-64, (R)-5-(4-((1H-1,2,4-triazol-1-yl)methyl)phenyl-amino)-3-(1-acryloylpiperidin-3-ylamino)-1,2,4-triazine-6-carboxamide], the pIC50 in assay [1], in assay [2], in assay [3] and in assay [5] was no less than 8.00 throughout.

In the case of `C=CC(=O)N1CCC[C@@H](Nc2nnc(C(N)=O)c(Nc3ccc(S(C)(=O)=O)cc3)n2)C1` [Example C-59, (R)-3-(1-acryloylpiperidin-3-ylamino)-5-(4-(methylsulfonyl)phenyl-amino)-1,2,4-triazine-6-carboxamide], the pIC50 in assay [1], in assay [2], in assay [3], in assay [4] and in assay [5] was no less than 8.00 throughout.
